According to US11254688B2 (Boehringer Ingelheim International GmbH, priority 2018, dated 2022):

target: T1, hGOAT (Homo sapiens, UniProt Q96T53); assay: Determination of hGOAT activity in HEK293 cells after incubation with test compound (acyl-ghrelin ELISA); type: cell-based; details: HEK293 cells stably transfected with preproghrelin and human GOAT; octanoate-BSA 100 μM; 5 hours incubation; acyl-ghrelin in medium by ELISA; 8 compound concentrations
T1 construct: expressed in transfected cells; host or cells: HEK293 (Hek293 hGOAT/PPGhrl Clone #1B8)
T1 sequence (Q96T53 1-435): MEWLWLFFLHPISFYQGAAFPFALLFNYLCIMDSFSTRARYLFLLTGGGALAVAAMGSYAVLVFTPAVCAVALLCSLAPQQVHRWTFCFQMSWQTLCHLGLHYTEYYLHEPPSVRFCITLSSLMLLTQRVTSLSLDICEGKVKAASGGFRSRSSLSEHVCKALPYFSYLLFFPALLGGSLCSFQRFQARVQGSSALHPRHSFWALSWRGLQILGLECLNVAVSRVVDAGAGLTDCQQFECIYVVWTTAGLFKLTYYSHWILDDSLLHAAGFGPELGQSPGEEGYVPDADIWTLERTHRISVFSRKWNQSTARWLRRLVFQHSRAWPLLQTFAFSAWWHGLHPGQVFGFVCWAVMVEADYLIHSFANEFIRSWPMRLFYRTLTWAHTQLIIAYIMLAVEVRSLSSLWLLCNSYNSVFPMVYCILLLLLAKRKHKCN

SMILES	IC50 [nM]
Cc1nc2nonc2c(N)c1Cc1ccc(-c2c[nH]nc2C(F)(F)F)nc1 [Compound 12.10, 5-Methyl-6-({6-[3-(trifluoromethyl)-1H-pyrazol-4-yl]pyridin-3-yl}methyl)-[1,2,5]oxadiazolo[3,4-b]pyridin-7-amine]	0.437
Cc1nc2nonc2c(N)c1Cc1ccc(-c2c(C)noc2C)n2cnnc12 [Compound 12.11, 6-{[5-(3,5-Dimethyl-1,2-oxazol-4-yl)-[1,2,4]triazolo[4,3-a]pyridin-8-yl]methyl}-5-methyl-[1,2,5]oxadiazolo[3,4-b]pyridin-7-amine]	1.31
Cc1nc2nonc2c(N)c1Cc1ccc(-c2ccsc2C#N)n2cnnc12 [Compound 12.12, 3-[8-({7-Amino-5-methyl-[1,2,5]oxadiazolo[3,4-b]pyridin-6-yl}methyl)-[1,2,4]triazolo[4,3-a]pyridin-5-yl]thiophene-2-carbonitrile]	1.25
Cc1nc2nonc2c(N)c1Cc1ccc(-c2ccnn2C)n2cnnc12 [Compound 12.13, 5-Methyl-6-[5-(2-methyl-2H-pyrazol-3-yl)-[1,2,4]triazolo[4,3-a]pyridin-8-ylmethyl]-[1,2,5]oxadiazolo[3,4-b]pyridin-7-ylamine]	2.79
Cc1nc2nonc2c(N)c1Cc1cccc(N=S(C)(C)=O)c1 [Compound 13.1, {[3-({7-Amino-5-methyl-[1,2,5]oxadiazolo[3,4-b]pyridin-6-yl}methyl)phenyl]imino}dimethyl-λ^6-sulfanone]	1.54
Cc1nc2nonc2c(N)c1Cc1ccc(OC(F)(F)F)c(N=S(C)(C)=O)c1 [Compound 13.2, {[5-({7-Amino-5-methyl-[1,2,5]oxadiazolo[3,4-b]pyridin-6-yl}methyl)-2-(trifluoromethoxy)phenyl]imino}dimethyl-λ^6-sulfanone]	0.033
Cc1nc2nonc2c(N)c1Cc1ccc(C(N)=O)cc1 [Compound 14.1, 4-({7-Amino-5-methyl-[1,2,5]oxadiazolo[3,4-b]pyridin-6-yl}methyl)benzamide]	6.29
Cc1nc2nonc2c(N)c1Cc1ccc(C(=O)N(C)C)cc1 [Compound 14.2, 4-({7-Amino-5-methyl-[1,2,5]oxadiazolo[3,4-b]pyridin-6-yl}methyl)-N,N-dimethylbenzamide]	0.665
Cc1nc2nonc2c(N)c1Cc1ccc(C(=O)NCC2CN(C)CCO2)cc1 (centres unmarked) [Compound 14.3, 4-({7-Amino-5-methyl-[1,2,5]oxadiazolo[3,4-b]pyridin-6-yl}methyl)-N-[(4-methylmorpholin-2-yl)methyl]benzamide]	2.93
Cc1nc2nonc2c(N)c1Cc1ccc(C(=O)NCc2ccn(C)n2)cc1 [Compound 14.4, 4-({7-Amino-5-methyl-[1,2,5]oxadiazolo[3,4-b]pyridin-6-yl}methyl)-N-[(1-methyl-1H-pyrazol-3-yl)methyl]benzamide]	2.25
Cc1nc2nonc2c(N)c1Cc1ccc(C(=O)NC2CCOCC2)cc1 [Compound 14.5, 4-({7-Amino-5-methyl-[1,2,5]oxadiazolo[3,4-b]pyridin-6-yl}methyl)-N-(oxan-4-yl)benzamide]	2.37
Cc1nc2nonc2c(N)c1Cc1ccc(C(=O)NC2(CO)CC2)cc1 [Compound 14.6, 4-({7-Amino-5-methyl-[1,2,5]oxadiazolo[3,4-b]pyridin-6-yl}methyl)-N-[1-(hydroxymethyl)cyclopropyl]benzamide]	4.27
Cc1nc2nonc2c(N)c1Cc1ccc(C(=O)Nc2cn(C)nc2C(F)(F)F)cc1 [Compound 14.7, 4-({7-Amino-5-methyl-[1,2,5]oxadiazolo[3,4-b]pyridin-6-yl}methyl)-N-[1-methyl-3-(trifluoromethyl)-1H-pyrazol-4-yl]benzamide]	1.83
Cc1nc2nonc2c(N)c1Cc1ccc(C(=O)NCc2cnccn2)cc1 [Compound 14.8, 4-({7-Amino-5-methyl-[1,2,5]oxadiazolo[3,4-b]pyridin-6-yl}methyl)-N-[(pyrazin-2-yl)methyl]benzamide]	3.64
Cc1nc2nonc2c(N)c1Cc1ccc(C(=O)NC2CCN(C)C2=O)cc1 (centres unmarked) [Compound 14.9, 4-({7-Amino-5-methyl-[1,2,5]oxadiazolo[3,4-b]pyridin-6-yl}methyl)-N-(1-methyl-2-oxopyrrolidin-3-yl)benzamide]	3.06
Cc1nc2nonc2c(N)c1Cc1ccc(C(=O)NC(C)CO)cc1 (centres unmarked) [Compound 14.10, 4-({7-amino-5-methyl-[1,2,5]oxadiazolo[3,4-b]pyridin-6-yl}methyl)-N-(1-hydroxypropan-2-yl)benzamide]	4.7
Cc1nc2nonc2c(N)c1Cc1ccc(C(=O)NCc2cnn(C)c2)cc1 [Compound 14.11, 4-({7-Amino-5-methyl-[1,2,5]oxadiazolo[3,4-b]pyridin-6-yl}methyl)-N-[(1-methyl-1H-pyrazol-4-yl)methyl]benzamide]	4.16
Cc1nc2nonc2c(N)c1Cc1ccc(C(=O)NC2CCOC2)cc1 (centres unmarked) [Compound 14.12, 4-({7-Amino-5-methyl-[1,2,5]oxadiazolo[3,4-b]pyridin-6-yl}methyl)-N-(oxolan-3-yl)benzamide]	3.02

SMILES	IC50 [nM]
Cc1nc2nonc2c(N)c1Cc1ccc(C(=O)NCC2(C)COC2)cc1 [Compound 14.13, 4-({7-Amino-5-methyl-[1,2,5]oxadiazolo[3,4-b]pyridin-6-yl}methyl)-N-[(3-methyloxetan-3-yl)methyl]benzamide]	4.99
Cc1nc2nonc2c(N)c1Cc1ccc(C(=O)NCc2ccnnc2)cc1 [Compound 14.14, 4-({7-Amino-5-methyl-[1,2,5]oxadiazolo[3,4-b]pyridin-6-yl}methyl)-N-[(pyridazin-4-yl)methyl]benzamide]	5.55
Cc1nc2nonc2c(N)c1Cc1ccc(C(=O)NCC(C)O)cc1 (centres unmarked) [Compound 14.15, 4-({7-Amino-5-methyl-[1,2,5]oxadiazolo[3,4-b]pyridin-6-yl}methyl)-N-(2-hydroxypropyl)benzamide]	5.12
Cc1nc2nonc2c(N)c1Cc1ccc(C(=O)NC(CO)C2CC2)cc1 (centres unmarked) [Compound 14.16, 4-({7-Amino-5-methyl-[1,2,5]oxadiazolo[3,4-b]pyridin-6-yl}methyl)-N-(1-cyclopropyl-2-hydroxyethyl)benzamide]	3.73
Cc1nc2nonc2c(N)c1Cc1ccc(C(=O)Nc2ncnn2C)cc1 [Compound 14.17, 4-({7-Amino-5-methyl-[1,2,5]oxadiazolo[3,4-b]pyridin-6-yl}methyl)-N-(1-methyl-1H-1,2,4-triazol-5-yl)benzamide]	4.5
CNC(=O)c1ccc(Cc2c(C)nc3nonc3c2N)cc1 [Compound 14.18, 4-({7-Amino-5-methyl-[1,2,5]oxadiazolo[3,4-b]pyridin-6-yl}methyl)-N-methylbenzamide]	7.77
Cc1nc2nonc2c(N)c1Cc1ccc(OC(F)(F)F)c(C(=O)N(C)C)c1 [Compound 15.1, 5-({7-Amino-5-methyl-[1,2,5]oxadiazolo[3,4-b]pyridin-6-yl}methyl)-N,N-dimethyl-2-(trifluoromethoxy)benzamide]	0.183
Cc1nc2nonc2c(N)c1Cc1ccc(OC(F)(F)F)c(C(N)=O)c1 [Compound 15.2, 5-({7-Amino-5-methyl-[1,2,5]oxadiazolo[3,4-b]pyridin-6-yl}methyl)-2-(trifluoromethoxy)benzamide]	0.096
Cc1nc2nonc2c(N)c1Cc1ccc(Cl)c(C(N)=O)c1 [Compound 15.3, 5-({7-Amino-5-methyl-[1,2,5]oxadiazolo[3,4-b]pyridin-6-yl}methyl)-2-chlorobenzamide]	1.58
CNC(=O)c1cc(Cc2c(C)nc3nonc3c2N)ccc1Cl [Compound 15.4, 5-({7-Amino-5-methyl-[1,2,5]oxadiazolo[3,4-b]pyridin-6-yl}methyl)-2-chloro-N-methylbenzamide]	0.933
Cc1nc2nonc2c(N)c1Cc1ccc(Cl)c(C(=O)N(C)C)c1 [Compound 15.5, 5-({7-Amino-5-methyl-[1,2,5]oxadiazolo[3,4-b]pyridin-6-yl}methyl)-2-chloro-N,N-dimethylbenzamide]	0.475
Cc1nc2nonc2c(N)c1Cc1ccc(C(F)(F)F)c(C(=O)N(C)C)c1 [Compound 15.6, 5-({7-Amino-5-methyl-[1,2,5]oxadiazolo[3,4-b]pyridin-6-yl}methyl)-N,N-dimethyl-2-(trifluoromethyl)benzamide]	1.26
Cc1nc2nonc2c(N)c1Cc1ccc(OC(F)(F)F)c(C#N)c1 [Compound 16.1, 5-({7-Amino-5-methyl-[1,2,5]oxadiazolo[3,4-b]pyridin-6-yl}methyl)-2-(trifluoromethoxy)benzonitrile]	0.26
Cc1nc2nonc2c(N)c1Cc1ccc(CO)cc1 [Compound 17.1, [4-({7-Amino-5-methyl-[1,2,5]oxadiazolo[3,4-b]pyridin-6-yl}methyl)phenyl]methanol]	0.726
Cc1nc2nonc2c(N)c1Cc1ccc(C(F)F)cc1 [Compound 17.2, 6-{[4-(difluoromethyl)phenyl]methyl}-5-methyl-[1,2,5]oxadiazolo[3,4-b]pyridin-7-amine]	0.171
Cc1nc2nonc2c(N)c1Cc1ccc([S+](C)[O-])cc1 (centres unmarked) [Compound 18.1, 6-[(4-Methanesulfinylphenyl)methyl]-5-methyl-[1,2,5]oxadiazolo[3,4-b]pyridin-7-amine]	0.921
Cc1nc2nonc2c(N)c1Cc1ccc(C2(C(N)=O)CC2)nc1 [Compound 19.1, 1-[5-({7-Amino-5-methyl-[1,2,5]oxadiazolo[3,4-b]pyridin-6-yl}methyl)pyridin-2-yl]cyclopropane-1-carboxamide]	4.53
